Results as given in the supplement of paper PMC9912026.

System: HT29
Assay: pERK immunofluorescence normalised to no-drug reference (=1); higher = more ERK phosphorylation (less pathway inhibition)
Conditions: drug treatment time 24 h, EGF time 8 h
Protocol: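 A375 CRISPRa-EGFR (A375_aEGFR2) or HT29 cells were treated with two-drug dose combinations (vemurafenib, LY3009120, cobimetinib) for 24 h, then stimulated with EGF (100 ng/mL) or mock medium for 8 h. pERK (T202/Y204) was measured by immunofluorescence as the cytosolic population average, normalised to an untreated no-drug reference of the block (=1). Averages of 2 technical replicates. A375 in 5% FBS, HT29 in 10% FBS.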

CCCS(=O)(=O)Nc1ccc(F)c(C(=O)c2c[nH]c3ncc(-c4ccc(Cl)cc4)cc23)c1F [Vemurafenib] + O=C(c1ccc(F)c(F)c1Nc1ccc(I)cc1F)N1CC(O)([C@@H]2CCCCN2)C1 [Cobimetinib]
pERK immunofluorescence normalised
Conditions	drug B concentration 0 µM	drug B concentration 0.0001 µM	drug B concentration 0.0003162 µM	drug B concentration 0.001 µM	drug B concentration 0.00316228 µM	drug B concentration 0.01 µM	drug B concentration 0.0316228 µM	drug B concentration 0.1 µM	drug B concentration 0.316228 µM	drug B concentration 1 µM
drug A concentration 0 µM, EGF 0 ng/mL	–	1.1	0.976	0.886	0.53	0.231	0.148	0.115	0.102	0.0988
drug A concentration 0 µM, EGF 100 ng/mL	–	1.01	0.982	0.979	0.936	0.829	0.673	0.483	0.218	0.117
drug A concentration 0.000316 µM, EGF 0 ng/mL	1	1.07	1.06	0.85	0.482	0.233	0.136	0.102	0.0952	0.0916
drug A concentration 0.000316 µM, EGF 100 ng/mL	1.1	1.09	1.13	1.03	1.03	0.928	0.82	0.539	0.227	0.111
drug A concentration 0.001 µM, EGF 0 ng/mL	1.05	1.06	1.03	0.855	0.463	0.217	0.127	0.106	0.0917	0.0915
drug A concentration 0.001 µM, EGF 100 ng/mL	1.05	1.11	1.14	1.08	1.02	0.873	0.751	0.499	0.213	0.108
drug A concentration 0.00316 µM, EGF 0 ng/mL	1.07	1.06	1.02	0.836	0.463	0.225	0.132	0.0985	0.0922	0.0903
drug A concentration 0.00316 µM, EGF 100 ng/mL	1.05	1.13	1.17	1.04	1.03	0.887	0.769	0.496	0.213	0.106
drug A concentration 0.01 µM, EGF 0 ng/mL	0.924	0.922	0.868	0.73	0.416	0.201	0.124	0.0992	0.093	0.0898
drug A concentration 0.01 µM, EGF 100 ng/mL	1.03	1.04	1.04	0.958	1	0.902	0.738	0.473	0.213	0.107
drug A concentration 0.0316 µM, EGF 0 ng/mL	0.742	0.727	0.695	0.513	0.389	0.189	0.129	0.0998	0.0935	0.095
drug A concentration 0.0316 µM, EGF 100 ng/mL	0.843	0.912	0.902	0.933	0.854	0.818	0.699	0.467	0.211	0.109
drug A concentration 0.1 µM, EGF 0 ng/mL	0.43	0.429	0.451	0.339	0.213	0.148	0.124	0.109	0.101	0.1
drug A concentration 0.1 µM, EGF 100 ng/mL	0.824	0.844	0.967	0.948	0.882	0.755	0.699	0.437	0.212	0.112
drug A concentration 0.316228 µM, EGF 0 ng/mL	0.261	0.305	0.273	0.251	0.166	0.133	0.115	0.104	0.101	0.0973
drug A concentration 0.316228 µM, EGF 100 ng/mL	0.765	0.827	0.843	0.882	0.815	0.767	0.626	0.458	0.206	0.109
drug A concentration 1 µM, EGF 0 ng/mL	0.201	0.205	0.203	0.178	0.146	0.125	0.111	0.101	0.0945	0.0941
drug A concentration 1 µM, EGF 100 ng/mL	0.754	0.764	0.815	0.808	0.746	0.713	0.606	0.363	0.177	0.104
drug A concentration 3.16 µM, EGF 0 ng/mL	0.162	0.165	0.171	0.144	0.134	0.119	0.113	0.0971	0.0922	0.0932
drug A concentration 3.16 µM, EGF 100 ng/mL	0.69	0.73	0.731	0.772	0.663	0.562	0.414	0.215	0.115	0.093
drug A concentration 10 µM, EGF 0 ng/mL	0.187	0.177	0.202	0.185	0.158	0.133	0.106	0.091	0.0912	0.0919
drug A concentration 10 µM, EGF 100 ng/mL	0.541	0.517	0.524	0.486	0.441	0.323	0.187	0.107	0.0914	0.09
